Results published in patent US9617244B2, “Antibacterial quinoline derivatives” (JANSSEN PHARMACEUTICA NV, priority 2012, dated 2017).
Values after ≈ are worked out from the molar mass of the structure shown.

Experiments:
[1] = system: Staphylococcus aureus (ATCC29213); assay: In-vitro anti-bacterial activity, microtitre plate assay, IC90 determination (non-mycobacterial strains); type: cell-based; conditions: 90% inhibitory concentration for bacterial growth, resazurin fluorescence; for IC90 STA B29213: 24 hours; for IC90: Staphylococcus aureus, ATCC29213, 24 h, read-out: IC90 STA B29213
Procedure, shortened: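 Growth inhibition measured fluorometrically with resazurin (530/590 nm) after overnight 37 °C incubation under normal atmosphere. Bacteria added at roughly 100 TCID50 per well in Mueller-Hinton broth to five-fold compound dilution series; IC90 reported in μg/ml.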

[2] = system: Mycobacterium smegmatis (ATCC607); assay: In-vitro anti-bacterial activity against strain M. Smegmatis ATCC607; type: cell-based; conditions: 90% inhibitory concentration for bacterial growth, Alamar Blue fluorescence; for IC90 MSM 607: 48 hours; for IC90: Mycolicibacterium smegmatis, ATCC607, 48 h, read-out: IC90 MSM 607
Procedure, shortened: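 IC90 (μg/ml) derived from Alamar Blue fluorescence (530/590 nm) after 48 h growth at 37 °C under 5% CO2. About 250 CFU per well in Mueller-Hinton broth faced five-fold serial compound dilutions in BSA-containing wells.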

Row | SMILES | IC90 STA B29213 [1] | IC90 MSM 607 [2] | melting point | IC90 [1] | IC90 [2]
1 | COc1nc2ccc(SC)cc2cc1C(c1ccccc1)C1(O)CCNC(c2ccc(F)cc2C)C1 (stereo not drawn) [Compound 168] | 3.17 µg/mL (≈ 6.31 µM) | 1.42 µg/mL (≈ 2.82 µM) | 169 °C |  | 
2 | COc1nc2ccc(S(C)(=O)=O)cc2cc1C(c1ccc(Cl)cc1)C1(O)CCNC(c2ccc(F)cc2C)C1 (stereo not drawn) [Compound 202] | 1.80 µg/mL (≈ 3.16 µM) | 2.27 µg/mL (≈ 3.99 µM) | 186 °C |  | 
3 | C=CC1CC(O)(C(c2ccc(Cl)cc2)c2cc3cc(Br)ccc3nc2OC)CCN1 (stereo not drawn) [Compound 372] | 6.14 µg/mL (≈ 12.6 µM) | 3.08 µg/mL (≈ 6.31 µM) | 194 °C |  | 
4 | COc1nc2ccc(S(C)(=O)=O)cc2cc1C(c1ccc(Cl)cc1)C1(O)CCNC(c2ccc3ccccc3c2)C1 (stereo not drawn) [Compound 462] | 1.86 µg/mL (≈ 3.17 µM) | 0.93 µg/mL (≈ 1.58 µM) | 192 °C |  | 
5 | CCn1c(=O)c(C(c2ccc(Cl)cc2)C2(O)CCNC(Cc3ccccc3)C2)cc2cc(Br)ccc21 (stereo not drawn) [Compound 82] | 2.84 µg/mL (≈ 5.02 µM) | 1.60 µg/mL (≈ 2.83 µM) | 230 °C |  | 
6 | COc1nc2ccc(SC)cc2cc1C(c1ccccc1)C1(O)CCNC(c2ccc(F)cc2C)C1 (stereo not drawn) [Compound 195] | 3.17 µg/mL (≈ 6.31 µM) | 2.00 µg/mL (≈ 3.98 µM) | 153 °C |  | 
7 | COc1nc2ccc(F)cc2cc1C(c1ccc(SC)cc1)C1(O)CCNC(c2ccc(F)cc2C)C1 (stereo not drawn) [Compound 406] |  | 2.61 µg/mL (≈ 5.01 µM) | 206 °C | 3.29 µg/mL (≈ 6.32 µM) | 
8 | COc1nc2ccc(SC)cc2cc1C(c1ccc(Cl)cc1)C1(O)CCNC(Cc2ccc(F)cc2)C1 (stereo not drawn) [Compound 260] | 3.39 µg/mL (≈ 6.31 µM) | 3.39 µg/mL (≈ 6.31 µM) | 104 °C |  | 
9 | COc1nc2ccc(Br)cc2cc1C(c1ccc(Cl)cc1)C1(O)CCNC(Cc2ccc(F)cc2)C1 (stereo not drawn) [Compound 357] | 5.70 µg/mL (≈ 10 µM) | 3.60 µg/mL (≈ 6.32 µM) | 104 °C |  | 
10 | COc1nc2ccc(Br)cc2cc1C(c1ccc(Cl)cc1)C1(O)CCNC(c2ccc(F)cc2C)C1 (stereo not drawn) [Compound 104] |  |  | 160 °C | 1.8 µg/mL (≈ 3.16 µM) | 1.14 µg/mL (≈ 2 µM)
11 | COc1nc2ccc(Br)cc2cc1C(c1ccc(Cl)cc1)C1(O)CCNC(Cc2ccc(F)cc2)C1 (stereo not drawn) [Compound 340] | 2.86 µg/mL (≈ 5.02 µM) | 1.43 µg/mL (≈ 2.51 µM) | 132 °C |  | 
12 | COc1nc2ccc(Br)cc2cc1C(c1ccc(Cl)cc1)C1(O)CCNC(c2ccc(F)cc2C)C1 (stereo not drawn) [Compound 105] | 1.80 µg/mL (≈ 3.16 µM) | 0.90 µg/mL (≈ 1.58 µM) | 149 °C |  | 
13 | COc1nc2ccc(S(C)(=O)=O)cc2cc1C(c1ccc(Cl)cc1)C1(O)CCNC(Cc2ccc(F)cc2)C1 (stereo not drawn) [Compound 390] | 14.30 µg/mL (≈ 25.1 µM) | 11.36 µg/mL (≈ 20 µM) | 170 °C |  | 
14 | COc1nc2ccc(F)cc2cc1C(c1ccc(Cl)cc1)C1(O)CCN(C(C)c2ccccc2)C(CO)C1 (stereo not drawn) [Compound 13] |  |  | 162 °C | 8.48 µg/mL (≈ 15.8 µM) | 4.77 µg/mL (≈ 8.91 µM)
15 | COc1nc2ccc(S(C)(=O)=O)cc2cc1C(c1cccc(Cl)c1)C1(O)CCNC(c2ccc(F)cc2C)C1 (stereo not drawn) [Compound 45] | 1.80 µg/mL (≈ 3.16 µM) | 1.14 µg/mL (≈ 2 µM) | 160 °C |  | 
16 | COc1nc2ccc(Br)cc2cc1C(c1ccc(Cl)cc1)C1(O)CCNC(Cc2ccc(F)cc2)C1 (stereo not drawn) [Compound 358] | 3.60 µg/mL (≈ 6.32 µM) | 1.43 µg/mL (≈ 2.51 µM) | 138 °C |  | 
17 | COc1nc2ccc(Br)cc2cc1C(c1ccc(Cl)cc1)C1(O)CCNC(Cc2ccccn2)C1 (stereo not drawn) [Compound 60] |  | 1.39 µg/mL (≈ 2.51 µM) | 161 °C | 2.77 µg/mL (≈ 5.01 µM) | 
18 | COc1nc2ccc(SC)cc2cc1C(c1ccc(Cl)cc1)C1(O)CCNC(Cc2ccc(F)c(F)c2)C1 (stereo not drawn) [Compound 189] | 1.76 µg/mL (≈ 3.17 µM) | 2.78 µg/mL (≈ 5.01 µM) | 160 °C |  | 

Row | SMILES | IC90 STA B29213 [1] | IC90 MSM 607 [2] | melting point | IC90 [1] | IC90 [2]
19 | COc1nc2ccc(S(C)(=O)=O)cc2cc1C(c1ccc(Cl)cc1)C1(O)CCNC(c2ccc3ccccc3c2)C1 (stereo not drawn) [Compound 460] | 3.70 µg/mL (≈ 6.3 µM) | 1.86 µg/mL (≈ 3.17 µM) | 197 °C |  | 
20 | COc1nc2ccc(SC)cc2cc1C(c1ccc(Cl)cc1)C1(O)CCNC(Cc2ccc(F)cc2)C1 (stereo not drawn) [Compound 302] | 2.14 µg/mL (≈ 3.98 µM) | 1.35 µg/mL (≈ 2.51 µM) | 120 °C |  | 
21 | COc1nc2ccc(CN)cc2cc1[C@@H](c1ccccc1)C1(O)CCNC(Cc2ccccc2)C1 (stereo partly drawn) [Compound 246] |  |  | 100 °C | > 11.8 µg/mL | > 11.8 µg/mL
22 | COc1nc2ccc(S(C)(=O)=O)cc2cc1C(c1cccc(Cl)c1)C1(O)CCNC(c2ccc(F)cc2C)C1 (stereo not drawn) [Compound 44] | 7.16 µg/mL (≈ 12.6 µM) | 3.59 µg/mL (≈ 6.31 µM) | 148 °C |  | 
23 | C=CC1CC(O)(C(c2ccc(Cl)cc2)c2cc3cc(Br)ccc3nc2OC)CCN1 (stereo not drawn) [Compound 374] | 3.08 µg/mL (≈ 6.31 µM) | 1.23 µg/mL (≈ 2.52 µM) | 162 °C |  | 
24 | COc1nc2ccc(Cl)cc2cc1C(c1ccc(Cl)cc1)C1(O)CCNCC1F (stereo not drawn) [Compound 455] | 7.74 µg/mL (≈ 17.8 µM) | 5.48 µg/mL (≈ 12.6 µM) | 118 °C |  | 
25 | C=CCC1CNCCC1(O)C(c1ccc(Cl)cc1)c1cc2cc(Br)ccc2nc1OC (stereo not drawn) [Compound 392] |  |  | 162 to 164 °C | 6.32 µg/mL (≈ 12.6 µM) | 3.17 µg/mL (≈ 6.32 µM)
26 | COc1nc2ccc(S(C)(=O)=O)cc2cc1C(c1ccc(Cl)cc1)C1(O)CCNC(c2ccc3ccccc3c2)C1 (stereo not drawn) [Compound 461] | 2.62 µg/mL (≈ 4.46 µM) | 1.47 µg/mL (≈ 2.5 µM) | 208 °C |  | 
27 | COc1nc2ccc(S(C)(=O)=O)cc2cc1C(c1ccccc1)C1(O)CCNC(c2ccc(F)cc2C)C1 (stereo not drawn) [Compound 252] | >13.43 µg/mL | >13.43 µg/mL | 152 °C |  | 
28 | COc1nc2ccc(S(C)(=O)=O)cc2cc1C(c1ccc(Cl)cc1)C1(O)CCNC(c2ccc(F)cc2C)C1 (stereo not drawn) [Compound 219] | 3.59 µg/mL (≈ 6.31 µM) | 1.80 µg/mL (≈ 3.16 µM) | 156 °C |  | 
29 | COc1nc2ccc(S(C)(=O)=O)cc2cc1C(c1ccc(Cl)cc1)C1(O)CCNCC1Cc1cccc[n+]1[O-] (stereo not drawn) [Compound 448] | >14.27 µg/mL | >14.27 µg/mL | 182 °C |  | 
30 | COc1nc2ccc(S(C)(=O)=O)cc2cc1C(c1ccc(Cl)cc1)C1(O)CCNC(c2ccc(F)cc2C)C1 (stereo not drawn) [Compound 217] | 1.27 µg/mL (≈ 2.23 µM) | 0.90 µg/mL (≈ 1.58 µM) | 169 °C |  | 
31 | COc1nc2ccc(Cl)cc2cc1C(c1ccc(Cl)cc1)C1(O)CCNCC1F (stereo not drawn) [Compound 453] |  | 2.75 µg/mL (≈ 6.32 µM) | 210 °C | 5.48 µg/mL (≈ 12.6 µM) | 
32 | COc1nc2ccc(Br)cc2cc1C(c1ccccc1)C1(O)CCNC(c2ccc(F)cc2C)C1 (stereo not drawn) [Compound 247] | 3.38 µg/mL (≈ 6.31 µM) | 1.69 µg/mL (≈ 3.16 µM) | 132 °C |  | 
33 | CCn1c(=O)c(C(c2ccc(Cl)cc2)C2(O)CCNC(Cc3ccccc3)C2)cc2cc(Br)ccc21 (stereo not drawn) [Compound 83] | 7.12 µg/mL (≈ 12.6 µM) | 3.57 µg/mL (≈ 6.31 µM) | 219 °C |  | 
34 | COc1nc2ccc(SC)cc2cc1C(c1ccccc1)C1(O)CCNC(c2ccc(F)cc2C)C1 (stereo not drawn) [Compound 197] | 1.59 µg/mL (≈ 3.16 µM) | 1.59 µg/mL (≈ 3.16 µM) | 138 °C |  | 
35 | COc1nc2ccc(S(C)(=O)=O)cc2cc1C(c1ccc(Cl)cc1)C1(O)CCNC(Cc2ccc(F)cc2)C1 (stereo not drawn) [Compound 388] | 1.80 µg/mL (≈ 3.16 µM) | 3.59 µg/mL (≈ 6.31 µM) | 103 °C |  | 
36 | COc1nc2ccc(S(C)(=O)=O)cc2cc1C(c1cccc(Cl)c1)C1(O)CCNC(c2ccc(F)cc2C)C1 (stereo not drawn) [Compound 46] | 3.59 µg/mL (≈ 6.31 µM) | 1.80 µg/mL (≈ 3.16 µM) | 145 °C |  | 
